Test results reported in ChEMBL document CHEMBL6074649, “An insight into recent developments in imidazole based heterocyclic compounds as anticancer agents: Synthesis, SARs, and mechanism of actions” (Eur J Med Chem, 2024).
pIC50: −log10 of the molar value. ≈ marks a conversion by molar mass, not a printed value.

Experiments:
HeLa [1] = test: Antiproliferative activity against human HeLa cells assessed as inhibition of cell growth at 20 uM measured for 48 hrs by MTT assay relative to control; type: functional
HT-29 [2] = test: Antiproliferative activity against human HT-29 cells assessed as inhibition of cell growth at 20 uM measured for 48 hrs by MTT assay relative to control; type: functional
A549 [3] = test: Antiproliferative activity against human A549 cells assessed as inhibition of cell growth at 20 uM measured for 48 hrs by MTT assay relative to control; type: functional
HCT-15 [4] = test: Antiproliferative activity against human HCT-15 cells assessed as inhibition of cell growth at 20 uM measured for 48 hrs by MTT assay relative to control; type: functional
MDA-MB-231 [5] = test: Antiproliferative activity against human MDA-MB-231 cells assessed as inhibition of cell growth at 20 uM measured for 48 hrs by MTT assay relative to control; type: functional
[6] = Antiproliferative activity against mouse 4T1-Luc cells; type: functional, cell-based
MDA-MB-231 [7] = test: Antiproliferative activity against human MDA_MB-231 cells; type: functional, cell-based
NCI-H460 = test: Antiproliferative activity against human NCI-H460 cells assessed as reduction in cell growth by MTT assay; type: functional, cell-based
NCI-H1299 = test: Antiproliferative activity against human NCI-H1299 cells assessed as reduction in cell growth by MTT assay; type: functional, cell-based
A549 [8] = test: Antiproliferative activity against A549 cells assessed as reduction in cell growth by MTT assay; type: functional, cell-based; conditions: Homo sapiens
MCF7 [9] = test: Antiproliferative activity against MCF7 cells assessed as reduction in cell growth by MTT assay; type: functional, cell-based; conditions: Homo sapiens
[10] = Antiproliferative activity against MRC5 cells assessed as reduction in cell growth by MTT assay; type: toxicity, cell-based; conditions: human
MCF7 [11] = test: Cytotoxicity against human MCF7 cells after 24 hrs by MTT assay; type: functional, cell-based; conditions: MCF7, 24 h
HepG2 [12] = test: Cytotoxicity against human HepG2 cells after 24 hrs by MTT assay; type: functional, cell-based; conditions: HepG2, 24 h
HCT-116 [13] = test: Cytotoxicity against human HCT-116 cells after 24 hrs by MTT assay; type: functional, cell-based; conditions: HCT-116, 24 h
[14] = Cytotoxicity against human MCF-10A cells measured after 24 hrs by MTT assay; type: toxicity, cell-based
A549 [15] = test: Cytotoxicity against human A549 cells assessed as reduction in cell growth; type: functional, cell-based
BXPC-3 = test: Antiproliferative activity against human BXPC-3 assessed as reduction in cell growth; type: functional, cell-based
HeLa [16] = test: Antiproliferative activity against human HeLa cells assessed as reduction in cell viability incubated for 72 hrs by MTT assay; type: functional, cell-based
HT-29 [17] = test: Antiproliferative activity against human HT-29 cells assessed as reduction in cell viability incubated for 72 hrs by MTT assay; type: functional, cell-based; conditions: HT-29, 72 h
A549 [18] = test: Antiproliferative activity against human A549 cells assessed as reduction in cell viability incubated for 72 hrs by MTT assay; type: functional, cell-based; conditions: A549, 72 h
MCF7 [19] = test: Antiproliferative activity against human MCF7 cells assessed as reduction in cell viability incubated for 72 hrs by MTT assay; type: functional, cell-based; conditions: MCF7, 72 h
Jurkat = test: Antiproliferative activity against human Jurkat cells assessed as reduction in cell viability incubated for 72 hrs by MTT assay; type: functional, cell-based
RS4-11 = test: Antiproliferative activity against human RS4-11 cells assessed as reduction in cell viability incubated for 72 hrs by MTT assay; type: functional, cell-based; conditions: RS4-11, 72 h
HL-60 = test: Antiproliferative activity against human HL-60 cells assessed as reduction in cell viability incubated for 72 hrs by MTT assay; type: functional, cell-based; conditions: HL-60, 72 h
Tubulin = test: Inhibition of tubulin polymerization (unknown origin); type: protein-complex assay, Homo sapiens
HCT-116 [20] = test: Anticancer activity against human HCT-116 cells assessed as reduction in cell viability at 50 ug/ml measured for 24 hrs by MTT assay relative to control; type: functional; conditions: dose 50 µg/ml
MCF7 [21] = test: Anticancer activity against human MCF7 cells assessed as reduction in cell viability at 50 ug/ml measured for 24 hrs by MTT assay relative to control; type: functional; conditions: dose 50 µg/ml
HFF [22] = test: Anticancer activity against human HFF cells assessed as reduction in cell viability at 50 ug/ml measured for 24 hrs by MTT assay relative to control; type: functional; conditions: dose 50 µg/ml
HCT-116 [23] = test: Anticancer activity against human HCT-116 cells assessed as reduction in cell viability at 10 ug/ml measured for 24 hrs by MTT assay relative to control; type: functional; conditions: dose 10 µg/ml
MCF7 [24] = test: Anticancer activity against human MCF7 cells assessed as reduction in cell viability at 10 ug/ml measured for 24 hrs by MTT assay relative to control; type: functional; conditions: dose 10 µg/ml
HFF [25] = test: Anticancer activity against human HFF cells assessed as reduction in cell viability at 10 ug/ml measured for 24 hrs by MTT assay relative to control; type: functional; conditions: dose 10 µg/ml
HCT-116 [26] = test: Anticancer activity against human HCT-116 cells assessed as reduction in cell viability at 50 ug/ml measured for 48 hrs by MTT assay relative to control; type: functional; conditions: dose 50 µg/ml
MCF7 [27] = test: Anticancer activity against human MCF7 cells assessed as reduction in cell viability at 50 ug/ml measured for 48 hrs by MTT assay relative to control; type: functional; conditions: dose 50 µg/ml
HFF [28] = test: Anticancer activity against human HFF cells assessed as reduction in cell viability at 50 ug/ml measured for 48 hrs by MTT assay relative to control; type: functional; conditions: dose 50 µg/ml
HCT-116 [29] = test: Anticancer activity against human HCT-116 cells assessed as reduction in cell viability at 10 ug/ml measured for 48 hrs by MTT assay relative to control; type: functional; conditions: dose 10 µg/ml
MCF7 [30] = test: Anticancer activity against human MCF7 cells assessed as reduction in cell viability at 10 ug/ml measured for 48 hrs by MTT assay relative to control; type: functional; conditions: dose 10 µg/ml
HFF [31] = test: Anticancer activity against human HFF cells assessed as reduction in cell viability at 10 ug/ml measured for 48 hrs by MTT assay relative to control; type: functional; conditions: dose 10 µg/ml
A549 [32] = test: Antiproliferative activity against human A549 cells assessed as reduction in cell growth by MTT assay; type: functional, cell-based
MCF7 [33] = test: Antiproliferative activity against human MCF7 cells assessed as reduction in cell growth by MTT assay; type: functional, cell-based
PANC-1 = test: Antiproliferative activity against human PANC-1 cells by MTT assay; type: functional, cell-based
HT-29 [34] = test: Antiproliferative activity against human HT-29 cells assessed as reduction in cell growth by MTT assay; type: functional, cell-based
MDA-MB-231 [35] = test: Anticancer activity against human MDA-MB-231 cells assessed as reduction in cell viability measured for 24 hrs by MTT assay; type: functional, cell-based; conditions: MDA-MB-231, 24 h
[36] = Anticancer activity against human MCF-10A cells assessed as reduction in cell viability measured for 24 hrs by MTT assay; type: toxicity, cell-based
Caco-2 = test: Cytotoxicity against human Caco-2 cells assessed as reduction in cell growth incubated for 24 hrs by MTT assay; type: functional, cell-based; conditions: Caco-2, 24 h
HCT-116 [37] = test: Cytotoxicity against human HCT-116 cells assessed as reduction in cell growth incubated for 24 hrs by MTT assay; type: functional, cell-based; conditions: HCT-116, 24 h
HeLa [38] = test: Cytotoxicity against human HeLa cells assessed as reduction in cell growth incubated for 24 hrs by MTT assay; type: functional, cell-based
HeLa [39] = test: Antiproliferative activity against human HeLa cells assessed as inhibition of cell growth at 0.1 uM measured for 48 hrs by MTT assay relative to control; type: functional; conditions: values are per cent of control
HT-29 [40] = test: Antiproliferative activity against human HT-29 cells assessed as inhibition of cell growth at 0.1 uM measured for 48 hrs by MTT assay relative to control; type: functional; conditions: HT-29, 48 h, values are per cent of control
A549 [41] = test: Antiproliferative activity against human A549 cells assessed as inhibition of cell growth at 0.1 uM measured for 48 hrs by MTT assay relative to control; type: functional
HCT-15 [42] = test: Antiproliferative activity against human HCT-15 cells assessed as inhibition of cell growth at 0.1 uM measured for 48 hrs by MTT assay relative to control; type: functional
MDA-MB-231 [43] = test: Antiproliferative activity against human MDA-MB-231 cells assessed as inhibition of cell growth at 0.1 uM measured for 48 hrs by MTT assay relative to control; type: functional
PC-3 = test: Anticancer activity against human PC-3 cells; type: functional, cell-based
DU-145 = test: Anticancer activity against human DU-145 cells; type: functional, cell-based
HepG2 [44] = test: Anticancer activity against human HepG2 cells; type: functional, cell-based
HepG2 [45] = test: Cytotoxicity against human HepG2 cells assessed as reduction in cell growth incubated for 24 hrs by SRB assay; type: functional, cell-based; conditions: HepG2, 24 h
HepG2 [46] = test: Antiproliferative activity against human HepG2 cells; type: functional, cell-based

Compound: CCCCCCCCCCCCn1cnc(C(=O)OCC)c1N
- inhibition at 20 µM (HeLa [1]): 85%
- inhibition at 20 µM (HT-29 [2]): 82%
- inhibition at 20 µM (A549 [3]): 54%
- inhibition at 20 µM (HCT-15 [4]): 52%
- inhibition at 20 µM (MDA-MB-231 [5]): 69%

Compound: Cc1[nH]c(SCc2c(F)cccc2F)nc1Cc1ccccc1
- pIC50 [6]: 5.18
- pIC50 (MDA-MB-231 [7]): 5.02

Compound: CN(C)CCCOc1ccc(-c2nc(-c3ccc(Br)o3)[nH]c2-c2ccc(OCCCN(C)C)cc2)cc1
- pIC50 (NCI-H460): 5.38
- pIC50 (NCI-H1299): > 7.00
- pIC50 (A549 [8]): 5.24
- pIC50 (MCF7 [9]): 5.16
- pIC50 [10]: 5.07

Compound: COc1ccc(-c2c[nH]c(=S)n2/N=C/c2ccccc2O)cc1
- pIC50 (MCF7 [11]): 5.97
- pIC50 (HepG2 [12]): 5.89
- pIC50 (HCT-116 [13]): 5.40
- IC50 at 24 h [14]: 27800 nM

Compound: C#Cc1cccc(Nc2ncnc3cc(OCCOC)c(OCCOC)cc23)c1 [ERLOTINIB]
- pIC50 (A549 [15]): 4.60
- pIC50 (BXPC-3): 5.01

Compound: CCOc1ccc(-c2nccn2-c2cc(OC)c(OC)c(OC)c2)cc1Cl
- pIC50 (HeLa [16]): 8.42
- pIC50 (HT-29 [17]): 9.40
- pIC50 (A549 [18]): 9.24
- pIC50 (MCF7 [19]): 9.15
- pIC50 (Jurkat): 9.05
- pIC50 (RS4-11): 8.92
- pIC50 (HL-60): 8.74
- pIC50 (Tubulin): 6.06

Compound: Nc1nc(-c2ccccc2)cn1/N=C/c1cnc2ccccc2n1
- Activity (HCT-116 [20]): 70%
- Activity (MCF7 [21]): 64.7%
- Activity (HFF [22]): 35.7%
- Activity (HCT-116 [23]): 46.6%
- Activity (MCF7 [24]): 41.1%
- Activity (HFF [25]): 7.1%
- Activity (HCT-116 [26]): 66.6%
- Activity (MCF7 [27]): 83.3%
- Activity (HFF [28]): 37.5%
- Activity (HCT-116 [29]): 50%
- Activity (MCF7 [30]): 47.3%
- Activity (HFF [31]): 33.3%

Compound: NS(=O)(=O)c1ccc(-n2c(-c3ccccc3Br)nc(-c3ccccc3)c2-c2ccccc2)cc1
- pIC50 (A549 [32]): 5.55
- pIC50 (MCF7 [33]): 5.57
- pIC50 (PANC-1): 5.60
- pIC50 (HT-29 [34]): 5.51

Compound: CCOC(=O)c1ccccc1-n1c(-c2c(O)[nH]c(=O)[nH]c2=O)cnc1C
- pIC50 (MDA-MB-231 [35]): 4.27
- IC50 at 24 h [36]: > 100000 nM

Compound: O=C(O)c1ccc(C(=O)NCn2cc(CSc3nc(-c4ccccc4)c(-c4ccccc4)n3-c3ccccc3)nn2)cc1
- pIC50 (Caco-2): 5.33
- pIC50 (HCT-116 [37]): 4.78
- pIC50 (HeLa [38]): 5.16

Compound: COc1cccc2c1C(=O)c1c(O)c3c(c(O)c1C2=O)C[C@@](O)(C(=O)CO)C[C@@H]3O[C@H]1C[C@H](N)[C@H](O)[C@H](C)O1 [DOXORUBICIN]
- viability, % of control at 0.1 µM (HeLa [39]): 90%
- viability, % of control at 0.1 µM (HT-29 [40]): 93%
- inhibition at 0.1 µM (A549 [41]): 89%
- inhibition at 0.1 µM (HCT-15 [42]): 94%
- inhibition at 0.1 µM (MDA-MB-231 [43]): 83%
- pIC50 (PC-3): 5.64
- pIC50 (DU-145): 5.34
- pIC50 (HepG2 [44]): 6.21
- pIC50 (PANC-1): 5.85
- pIC50 (HT-29 [34]): 6.00
- IC50 (HepG2 [45]): 0.42 µg/mL (≈ 0.773 µM)
- pIC50 (Caco-2): 5.29
- pIC50 (HCT-116 [37]): 5.25
- pIC50 (HeLa [38]): 5.90
- pIC50 (HepG2 [46]): 6.07
